This note sets out measurements from PubChem BioAssay (NCI).

SMILES strings stand for the structures.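 How tested: cells in 96-well plates exposed to compound for 48 hours at five concentrations. Abbreviation: GI50, concentration required for 50% inhibition of growth. TGI is the concentration that stops growth completely.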

Test systems include HOP-62 NSCLC; MDA-MB-435; 786-0 renal; SK-MEL-5 melanoma; SF-295 CNS; MDA-MB-231 breast; A549 NSCLC; NCI/ADR-RES ovarian; MOLT-4 leukemia; MALME-3M melanoma.
Common to all, as to test: NCI anticancer screen, dose series, 48 h

Regarding `COc1cc(OC)c(C(=O)/C=C/c2ccc(C#N)cc2)c(OC)c1`, the GI50 in the assay on HOP-62 NSCLC is 1.44 µM; in the assay on MDA-MB-435 it was 1.32 µM; in the assay with 786-0 renal, 1.86 µM; with SK-MEL-5 melanoma it was 1.97 µM; in the assay on SF-295 CNS, 1.72 µM; in the assay on MDA-MB-231 breast, 2.31 µM. Further, the GI50 in the assay with A549 NSCLC was 1.85 µM; in the assay with NCI/ADR-RES ovarian it was 1.4 µM; in the assay on MOLT-4 leukemia it was 1.44 µM; in the assay on MALME-3M melanoma, 2.23 µM. For the same compound, the TGI in the assay with HOP-62 NSCLC worked out at 4.24 µM; in the assay with MDA-MB-435 it was 6.69 µM; in the assay on 786-0 renal, 6.88 µM; in the assay on SK-MEL-5 melanoma it was 6.95 µM; in the assay on SF-295 CNS it was 8.81 µM; in the assay with MDA-MB-231 breast, 9.32 µM. Moreover, the TGI is > 50 µM in the assay on A549 NSCLC, > 50 µM in the assay with NCI/ADR-RES ovarian, 13 µM with MOLT-4 leukemia and 10.3 µM with MALME-3M melanoma.

For `O=C1CN=C(c2ccc[nH]2)c2cc(Cl)ccc2N1`, the GI50 in the assay with HOP-62 NSCLC, in the assay on MDA-MB-435, with 786-0 renal, with SK-MEL-5 melanoma, in the assay on SF-295 CNS and in the assay on MDA-MB-231 breast was > 100 µM throughout. Also, the GI50 in the assay on A549 NSCLC was > 100 µM; in the assay on NCI/ADR-RES ovarian it was 57.4 µM; in the assay on MOLT-4 leukemia, > 100 µM; in the assay with MALME-3M melanoma it was > 100 µM. Moreover, the TGI in the assay on HOP-62 NSCLC, in the assay with MDA-MB-435, with 786-0 renal, in the assay with SK-MEL-5 melanoma, with SF-295 CNS and with MDA-MB-231 breast was > 100 µM in each case. Moreover, the TGI in the assay on A549 NSCLC, with NCI/ADR-RES ovarian, in the assay with MOLT-4 leukemia and with MALME-3M melanoma was > 100 µM in each case.

As to `CC1(C)C(=O)/C=C\C(=O)C(C)(C)C2=CC=C(O2)C(C)(C)C(=O)C(Br)C(Br)C(=O)C(C)(C)C2=CC=C1O2` (stereo not given), the TGI in the assay with HOP-62 NSCLC was > 100 µM; with MDA-MB-435, > 100 µM; in the assay with 786-0 renal, > 100 µM; in the assay with SK-MEL-5 melanoma it was > 100 µM; in the assay on SF-295 CNS, > 100 µM; in the assay with MDA-MB-231 breast it was > 86.7 µM. For the same compound, the TGI was > 100 µM in the assay with A549 NSCLC, 90.2 µM in the assay with NCI/ADR-RES ovarian, 30.6 µM with MOLT-4 leukemia and > 100 µM in the assay on MALME-3M melanoma.

For the compound `COc1cccc(/C=N\NC(=O)c2ccncc2)c1O`, the GI50 with HOP-62 NSCLC is 5.36 µM; in the assay on MDA-MB-435, 19.2 µM; with 786-0 renal, 3.53 µM; in the assay with SK-MEL-5 melanoma it was 6.29 µM; with SF-295 CNS it was 3.35 µM; with MDA-MB-231 breast, 7.61 µM. Further, the GI50 is 11 µM with A549 NSCLC, 2.84 µM with NCI/ADR-RES ovarian, 3.04 µM with MOLT-4 leukemia and 6.62 µM in the assay on MALME-3M melanoma. Also, the TGI with HOP-62 NSCLC was > 100 µM; in the assay on MDA-MB-435 it was > 100 µM; in the assay with 786-0 renal, 30.6 µM; in the assay with SK-MEL-5 melanoma, 29 µM; in the assay with SF-295 CNS it was 71.2 µM; in the assay with MDA-MB-231 breast it was > 100 µM. For the same compound, the TGI is > 100 µM with A549 NSCLC, > 100 µM in the assay on NCI/ADR-RES ovarian, > 100 µM in the assay on MOLT-4 leukemia and 88.3 µM in the assay with MALME-3M melanoma.

On to `Cc1nnn(C)c1-c1cnc2c3ccc(C(C)(C)O)cc3n([C@H](c3ccccc3)C3CCOCC3)c2c1`, for which the GI50 was < 0.0227 µM in the assay with HOP-62 NSCLC; < 0.01 µM with MDA-MB-435; 0.0707 µM with 786-0 renal; < 0.01 µM with SK-MEL-5 melanoma; 0.0555 µM in the assay on SF-295 CNS; < 0.01 µM with MDA-MB-231 breast. For the same compound, the GI50 in the assay with A549 NSCLC was 0.037 µM; in the assay with NCI/ADR-RES ovarian, 0.26 µM; in the assay on MOLT-4 leukemia it was 0.197 µM; in the assay with MALME-3M melanoma, 0.052 µM. The TGI in the assay with HOP-62 NSCLC was > 46.9 µM; with MDA-MB-435, > 100 µM; with 786-0 renal, 21.5 µM; with SK-MEL-5 melanoma it was 10.7 µM; in the assay with SF-295 CNS it was 20.5 µM; in the assay on MDA-MB-231 breast, 24.7 µM. The TGI with A549 NSCLC is 31.9 µM; in the assay with NCI/ADR-RES ovarian it was 37.8 µM; in the assay with MOLT-4 leukemia, > 100 µM; in the assay with MALME-3M melanoma it was 41.3 µM.

For the compound `Cc1ccc(-c2cc(C(=O)Nc3ccc(S(=O)(=O)N4CCCCC4)cc3)[nH]n2)c(O)c1`, the GI50 with HOP-62 NSCLC was > 100 µM; in the assay on MDA-MB-435 it was > 100 µM; with 786-0 renal, > 100 µM; in the assay on SK-MEL-5 melanoma, > 100 µM; in the assay on SF-295 CNS, > 100 µM; in the assay on MDA-MB-231 breast it was 16.8 µM. Besides, the GI50 is > 100 µM in the assay with A549 NSCLC, > 100 µM in the assay on NCI/ADR-RES ovarian, 55.1 µM in the assay on MOLT-4 leukemia and > 100 µM with MALME-3M melanoma. Moreover, the TGI with HOP-62 NSCLC, in the assay with MDA-MB-435, in the assay on 786-0 renal, in the assay on SK-MEL-5 melanoma, in the assay with SF-295 CNS and in the assay on MDA-MB-231 breast was > 100 µM each time. The TGI in the assay on A549 NSCLC, in the assay with NCI/ADR-RES ovarian, with MOLT-4 leukemia and in the assay on MALME-3M melanoma was > 100 µM each time.
